BindingDB's records for doi:10.1021/jm060947x (Institut D'Investigacions Biomèdiques August Pi I, 2007)

Experiments:
[1] = Displacement of [3H]SCH 23390 from dopamine D1 receptor in lamb striatum membrane after 1 hr
[2] = Displacement of [3H]YM 09151-2 from dopamine D2 receptor in lamb striatum membrane after 2 hrs
[3] = Displacement of [3H]R-PIA from adenosine A1 receptor in lamb striatum membrane after 1 hr

Structure (SMILES)	Kd [1] [nM]	Kd [2] [nM]	Kd [3] [nM]
CN1C[C@H](C(=O)N[C@@H](Cc2ccc([N+](=O)[O-])cc2)C(=O)N[C@@H](Cc2ccc(F)cc2)C(=O)N2CCCC(C(N)=O)C2)C=C2c3cccc4[nH]cc(c34)C[C@H]21 (stereo partly drawn) [(6aR,9R)-N-((S)-1-((S)-1-(3-carbamoylpiperidin-1-yl)-3-(4-fluorophenyl)-1-oxopropan-2-ylamino)-3-(4-nitrophenyl)-1-oxopropan-2-yl)-7-methyl-4,6,6a,7,8,9-hexahydroindolo[4,3-fg]quinoline-9-carboxamide]	700	20	
CC(C)[C@H](NC(=O)[C@H](Cc1ccc([N+](=O)[O-])cc1)NC(=O)[C@@H]1C=C2c3cccc4[nH]cc(c34)C[C@H]2N(C)C1)C(=O)N1c2ccccc2C[C@H]1C(N)=O [(6aR,9R)-N-((S)-1-((S)-1-((S)-2-carbamoylindolin-1-yl)-3-methyl-1-oxobutan-2-ylamino)-3-(4-nitrophenyl)-1-oxopropan-2-yl)-7-methyl-4,6,6a,7,8,9-hexahydroindolo[4,3-fg]quinoline-9-carboxamide]		2000	100
CC(C)[C@H](NC(=O)[C@@H]1C=C2c3cccc4[nH]cc(c34)C[C@H]2N(C)C1)C(=O)N[C@@H](Cc1ccc(F)cc1)C(=O)N1CCC[C@H]1C(N)=O [(6aR,9R)-N-((S)-1-((S)-1-((S)-2-carbamoylpyrrolidin-1-yl)-3-(4-fluorophenyl)-1-oxopropan-2-ylamino)-3-methyl-1-oxobutan-2-yl)-7-methyl-4,6,6a,7,8,9-hexahydroindolo[4,3-fg]quinoline-9-carboxamide]	600	16000	
CC(C)[C@H](NC(=O)[C@@H]1C=C2c3cccc4[nH]cc(c34)C[C@H]2N(C)C1)C(=O)N[C@@H](Cc1ccc([N+](=O)[O-])cc1)C(=O)N1CCC[C@H]1C(N)=O [(6aR,9R)-N-((S)-1-((S)-1-((S)-2-carbamoylpyrrolidin-1-yl)-3-(4-nitrophenyl)-1-oxopropan-2-ylamino)-3-methyl-1-oxobutan-2-yl)-7-methyl-4,6,6a,7,8,9-hexahydroindolo[4,3-fg]quinoline-9-carboxamide]	7800		
CC(C)[C@H](NC(=O)[C@H](CCC1CCCCC1)NC(=O)[C@@H]1C=C2c3cccc4[nH]cc(c34)C[C@H]2N(C)C1)C(=O)N1CCC[C@H]1C(N)=O [(6aR,9R)-N-((S)-1-((S)-1-((S)-2-carbamoylpyrrolidin-1-yl)-3-methyl-1-oxobutan-2-ylamino)-4-cyclohexyl-1-oxobutan-2-yl)-7-methyl-4,6,6a,7,8,9-hexahydroindolo[4,3-fg]quinoline-9-carboxamide]	1200		
CC(C)[C@H](NC(=O)[C@H]1C=C2c3cccc4[nH]cc(c34)C[C@H]2N(C)C1)C(=O)N[C@@H](Cc1ccc([N+](=O)[O-])cc1)C(=O)N1CCC[C@H]1C(N)=O [(6aR,9S)-N-((S)-1-((S)-1-((S)-2-carbamoylpyrrolidin-1-yl)-3-(4-nitrophenyl)-1-oxopropan-2-ylamino)-3-methyl-1-oxobutan-2-yl)-7-methyl-4,6,6a,7,8,9-hexahydroindolo[4,3-fg]quinoline-9-carboxamide]	700		
